Entries after “also recorded” stand apart in the source; their conditions may differ. Ends that are not written are not given here.
Columns and labels:
[1] = system: rat POMC promoter (−480 to +63 bp); test: POMC promoter-luciferase reporter lipofected in AtT-20 cells; type: cell-based; conditions: Dex 10^−7M
Protocol: (§1) Transfections in AtT-20 cells were performed by lipofection (lipofectin, Gibco) using exponentially growing AtT-20 cells (7.5×10^5) in 35 mm Petri dishes. Cells were grown in DMEM with 10% fetal calf serum stripped with dextran-coated charcoal. Cells and media were harvested 16 h after lipofection. Each sample for lipofection contained a total of 1.5 μg DNA, including 300 ng reporter plasmid, 300 ng RSV-GH as internal control, 100 ng of pCMX-Nur77 expression vector, and total DNA was completed to 1.5 μg with pSP64. The POMC promoter constructs were described previously (Therrien et al., 1991, Mol. Cell. Biol. 11:3492-3503; Therrien et al., 1993, Cell. Biol. 13:2342-2353.). In particular, the NurRE and nGRE linker scanning replacement mutations were described previously as mutants 3 and 15 in a series of promoter mutations (Therrien et al., 1991, supra). DO 11.10 cells were electroporated using a Biorad instruments at 250 V, 960 μFarad, and 10 μg each of reporter plasmid and expression vectors. CRH (10^−7M) and forskolin (10^−7M) were used at maximally active concentrations, and anti-CD3 (clone 145-2C11) was used at 1 μg/ml to coat dishes. The expression plasmid for the Nur77 dominant negative mutant was used at 3 μg/dish. Data are presented as the means ± SEM of 3 to 5 experiments each performed in duplicate. […]

Nur77 mRNA = test: Northern blot of Nur77 mRNA in AtT-20 cells; type: cell-based
Protocol: Total RNA (20 μg) extracted from AtT-20 cells was used in Northern blot experiments performed as described previously (Lamonerie et al., 1996, Genes Dev. 10:1284-1295).

Nur-RE [2] = test: NurRE-luc reporter cotransfection with Nur77 and GR in CV-1 cells; type: cell-based; conditions: Dex 10^−7M, ratio 1/0
NBRE = test: NBRE-luc reporter, antagonism between Nur77 and Dex; type: cell-based; conditions: data not shown
Protocol: Transfections in AtT-20 cells were performed by lipofection (Lipofectamine, Gibco) using exponentially growing AtT-20 cells (7.5×10^5) in 35 mm Petri dishes. Cells were grown in DMEM with 10% fetal calf serum stripped with dextrancoated charcoal (Drouin et al., 1976, Endocrinology 98:1528-1534). Cells and media were harvested 16 h after lipofection. Each sample for lipofection contained a total of 1.5 μg DNA, including 300 ng reporter plasmid, 300 ng RSV-GH as internal control, 100 ng of pCMX-Nur77 expression vector, and total DNA was completed to 1.5 μg with pSP64. Where indicated, CRH and Dex were added at 10^−7M. The POMC promoter constructs were described previously (Therrien et al., 1991, Mol. Cell. Biol. 11:3492-3503; Therrien et al., 1993, Mol. Cell. Biol. 13:2342-2353). In particular, the NurRE and nGRE linker scanning replacement mutations were described previously as mutants 3 and 15 in a series of promoter mutations (Therrien et al., 1991, supra). DO 11.10 cells ([…] in 0.35 ml SMEM) were electroporated using a Biorad instruments at 250 V, 960 μFarad, and 10 μq each of reporter plasmid and expression vectors. After electroporation, cells were plated in SMEM containing 5% fetal calf serum with or without 10^−7M Dex, antiCD3 (clone 145-2C11) was used at 1 μg/ml to coat dishes (Iwata et al., 1991, Eur. J. Pharmacol. 21:643-648). […]

Nur-RE [3] = test: NurRE-luc reporter (three copies of Nur-RE upstream of minimal POMC promoter) in AtT-20 cells; type: cell-based; conditions: CRH 10^−7M
Protocol: as §1

Nur77 (NGFI-B) [4] = biological target: T1, Nur77 (NGFI-B) (UniProt P12813 P12813:1-601); test: EMSA; binds as monomer; conditions: tags: Promega TNT SP6/T7, pCMX-Nur77; label: 3'-end label (Klenow)
T1 sequence (P12813 whole entry, one chain of several): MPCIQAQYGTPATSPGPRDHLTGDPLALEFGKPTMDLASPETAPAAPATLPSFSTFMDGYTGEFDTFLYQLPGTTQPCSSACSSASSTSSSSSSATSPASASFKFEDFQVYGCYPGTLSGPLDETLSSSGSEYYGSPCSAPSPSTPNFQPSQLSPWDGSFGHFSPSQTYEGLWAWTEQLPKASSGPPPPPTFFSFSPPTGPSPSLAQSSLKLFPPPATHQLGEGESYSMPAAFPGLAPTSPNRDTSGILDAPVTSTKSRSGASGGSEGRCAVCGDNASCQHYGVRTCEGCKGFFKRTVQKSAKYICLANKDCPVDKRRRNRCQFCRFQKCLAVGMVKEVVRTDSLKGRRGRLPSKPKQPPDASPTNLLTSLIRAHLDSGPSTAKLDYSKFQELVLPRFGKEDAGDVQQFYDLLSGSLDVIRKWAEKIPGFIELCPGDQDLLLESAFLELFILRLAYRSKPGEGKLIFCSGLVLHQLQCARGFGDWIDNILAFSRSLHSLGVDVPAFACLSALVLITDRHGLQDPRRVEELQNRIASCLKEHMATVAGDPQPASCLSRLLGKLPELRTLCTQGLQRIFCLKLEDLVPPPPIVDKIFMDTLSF
From the text: For gel retardation experiments, Nur-RE or NBRE oligonucleotides were 3'-end-labeled using Klenow polymerase and purified on polyacrilamide gels.
(§2) The interaction of Nur77 with Nur-RE was investigated directly in binding studies using in vitro translated Nur77.

[5] = biological target: Glucocorticoid receptor (GR) (UniProt P06536 P06536:1-795); test: EMSA; conditions: tags: Promega TNT; label: 3'-end label (Klenow)
Chain of Glucocorticoid receptor (GR) (P06536 whole entry, one chain of several): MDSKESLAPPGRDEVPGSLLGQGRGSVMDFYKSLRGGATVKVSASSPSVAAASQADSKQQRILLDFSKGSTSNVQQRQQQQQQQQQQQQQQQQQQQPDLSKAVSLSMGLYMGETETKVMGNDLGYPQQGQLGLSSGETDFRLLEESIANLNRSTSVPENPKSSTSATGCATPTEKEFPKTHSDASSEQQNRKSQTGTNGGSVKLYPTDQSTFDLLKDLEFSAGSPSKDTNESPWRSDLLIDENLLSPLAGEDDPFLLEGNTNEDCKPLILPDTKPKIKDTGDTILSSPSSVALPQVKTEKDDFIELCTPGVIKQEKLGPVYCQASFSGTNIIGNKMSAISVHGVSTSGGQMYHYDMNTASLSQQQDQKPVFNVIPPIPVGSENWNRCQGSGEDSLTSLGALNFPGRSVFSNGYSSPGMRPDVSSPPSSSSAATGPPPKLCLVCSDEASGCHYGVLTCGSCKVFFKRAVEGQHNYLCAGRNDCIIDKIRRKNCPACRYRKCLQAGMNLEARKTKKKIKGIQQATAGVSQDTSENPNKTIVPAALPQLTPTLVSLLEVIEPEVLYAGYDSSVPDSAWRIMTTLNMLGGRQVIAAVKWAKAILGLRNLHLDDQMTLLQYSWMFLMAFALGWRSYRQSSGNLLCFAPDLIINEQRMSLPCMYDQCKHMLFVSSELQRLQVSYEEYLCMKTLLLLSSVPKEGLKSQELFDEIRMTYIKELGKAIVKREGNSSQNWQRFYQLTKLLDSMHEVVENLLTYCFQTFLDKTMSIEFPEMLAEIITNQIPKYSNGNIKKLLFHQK

Nur77 (NGFI-B) [6] = biological target: T1, Nur77 (NGFI-B); test: EMSA; binds as homodimer, apparently cooperative; DMS interference maps two inverted octamers 6 bp apart; conditions: tags: Promega TNT SP6/T7, pCMX-Nur77; label: 3'-end label (Klenow)
From the text: End-labeled coding (C) and non-coding (NC) strands of the Nur-RE were used for DMS interference of Nur77 binding. […] E) Binding of Nur77 to the wild-type and mutant Nur-RE. […] Methods. For gel retardation experiments, Nur-RE or NBRE oligonucleotides were 3'-end-labeled using Klenow polymerase and purified on polyacrilamide gels.
as §2

## C[C@@H]1C[C@H]2[C@@H]3CCC4=CC(=O)C=C[C@]4(C)[C@@]3(F)[C@@H](O)C[C@]2(C)[C@@]1(O)C(=O)CO [Dex, dexamethasone]
[1]
  magnitude of the repression of POMC promoter/luciferase reporter: 2- to 3 fold
Nur77 mRNA; Dex 10^−7M with CRH 10^−7M
  reduction of the CRH induction of Nur77 mRNA: about 50%
Nur-RE [2]
  effect on Nur77 activation at the NurRE in the absence of GR: no effect
NBRE
  magnitude of Nur77/Dex antagonism on NBRE-luc reporter relative to NurRE-luc: about 40 fold less

## Corticotropin Releasing Hormone (SEEPPISLDLTFHLLREVLEMARAEQLAQQAHSNRKLMEII; ends and bridges not checked; UniProt P06850 154-194, looked up) [CRH, hypothalamic hormone, major stimulus of pituitary ACTH secretion and of POMC transcription]
Nur-RE [3]
  response of Nur-RE reporter (oligomerized response element, construct 6) to CRH: greatly enhanced response
Nur77 mRNA; CRH 10^−7M
  induction of Nur77 mRNA/expression: rapidly Induced; also recorded: transient induction

B1: NBRE (dsDNA)
DNA 1: GATCCTCGTGCGAAAAGGTCAAGCGCTA
DNA 2: TAGCGCTTGACCTTTTCGCACGAGGATC
Nur77 (NGFI-B) [4]
  binding result: binds

B2: NurRE (POMC) (dsDNA)
DNA 1: GATCCTAGTGATATTTACCTCCAAATGCCAGGA
DNA 2: TCCTGGCATTTGGAGGTAAATATCACTAGGATC
[5]
  binding result: no binding
Nur77 (NGFI-B) [6]
  binding result: binds

— US6852538B1, “Nur-RE a response element which binds nur nuclear receptors and method of use therefor” (Institut de Recherches Cliniques de Montreal, priority 1996, dated 2005)
